Laboratory results from ChEMBL document CHEMBL1201862, “PubChem BioAssay data set” (2004).
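Following 48 hours of exposure in 96-well plates, responses at five concentrations were used to interpolate endpoints linearly. GI50: concentration for 50% inhibition of growth.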 Calls of active or inactive are those of the source. Rule as the data show it: active = GI50 up to about 1.1 µM and inactive = higher.

Key:
Experiment in all cases: growth of human tumour cells (NCI), 48 h
HT-29 = system: HT-29
OVCAR-4 = system: OVCAR-4
MOLT-4 = system: MOLT-4
K562 = system: K562
HOP-62 = system: HOP-62
SF-268 = system: SF-268
DLD-1 = system: DLD-1
SNB-75 = system: SNB-75
OVCAR-5 = system: OVCAR-5
DMS-273 = system: DMS-273
CCRF-CEM = system: CCRF-CEM
SNB-78 = system: SNB-78
NCI-H460 = system: NCI-H460
HCC 2998 = system: HCC 2998
M14 = system: M14
SF-539 = system: SF-539
IGROV-1 = system: IGROV-1
NCI-H226 = system: NCI-H226
OVCAR-8 = system: OVCAR-8
NCI-H23 = system: NCI-H23
COLO 205 = system: COLO 205
SK-MEL-5 = system: SK-MEL-5
ACHN = system: ACHN
SW-620 = system: SW-620
SF-295 = system: SF-295
EKVX = system: EKVX
786-0 = system: 786-0
TK-10 = system: TK-10
RXF 393 = system: RXF 393
HL-60 = system: HL-60
SN12C = system: SN12C
SNB-19 = system: SNB-19
SK-OV-3 = system: SK-OV-3
U-251 = system: U-251
UACC-257 = system: UACC-257
KM-20L2 = system: KM-20L2
RPMI-8226 = system: RPMI-8226
A549 = system: A549
DMS-114 = system: DMS-114
UACC-62 = system: UACC-62
M19-MEL = system: M19-MEL
UO-31 = system: UO-31
SR = system: SR
LXFL 529 = system: LXFL 529
SK-MEL-28 = system: SK-MEL-28
HCT-116 = system: HCT-116
KM12 = system: KM12
OVCAR-3 = system: OVCAR-3
HCT-15 = system: HCT-15
LOX IMVI = system: LOX IMVI
SK-MEL-2 = system: SK-MEL-2
A498 = system: A498
CAKI-1 = system: CAKI-1
NCI/ADR-RES = system: NCI/ADR-RES
PC-3 = system: PC-3
Malme-3M = system: Malme-3M
BT-549 = system: BT-549
HOP-92 = system: HOP-92
MDA-N = system: MDA-N
MDA-MB-231 = system: MDA-MB-231
MCF7 = system: MCF7
Hs-578T = system: Hs-578T
T47D = system: T47D
MDA-MB-435 = system: MDA-MB-435
DU-145 = system: DU-145
NCI-H522 = system: NCI-H522

COC(=O)CCCN(C)c1nc(N)n[nH]1
GI50 (HT-29): > 100 µM (inactive) | GI50 (OVCAR-4): > 100 µM (inactive) | GI50 (MOLT-4): > 100 µM (inactive) | GI50 (K562): > 100 µM (inactive) | GI50 (HOP-62): > 100 µM (inactive) | GI50 (SF-268): > 100 µM (inactive) | GI50 (DLD-1): > 100 µM (inactive) | GI50 (SNB-75): 66.2 µM (inactive) | GI50 (OVCAR-5): > 100 µM (inactive) | GI50 (DMS-273): > 100 µM (inactive) | GI50 (CCRF-CEM): > 100 µM (inactive) | GI50 (SNB-78): > 100 µM (inactive) | GI50 (NCI-H460): > 100 µM (inactive) | GI50 (HCC 2998): > 100 µM (inactive) | GI50 (M14): > 100 µM (inactive) | GI50 (SF-539): > 100 µM (inactive) | GI50 (IGROV-1): > 100 µM (inactive) | GI50 (NCI-H226): > 100 µM (inactive) | GI50 (OVCAR-8): > 100 µM (inactive) | GI50 (NCI-H23): > 100 µM (inactive) | GI50 (COLO 205): > 100 µM (inactive) | GI50 (SK-MEL-5): > 100 µM (inactive) | GI50 (ACHN): > 100 µM (inactive) | GI50 (SW-620): > 100 µM (inactive) | GI50 (SF-295): > 100 µM (inactive) | GI50 (EKVX): > 100 µM (inactive) | GI50 (786-0): > 100 µM (inactive) | GI50 (TK-10): > 100 µM (inactive) | GI50 (RXF 393): > 100 µM (inactive) | GI50 (HL-60): > 100 µM (inactive) | GI50 (SN12C): > 100 µM (inactive) | GI50 (SNB-19): > 100 µM (inactive) | GI50 (SK-OV-3): > 100 µM (inactive) | GI50 (U-251): > 100 µM (inactive) | GI50 (UACC-257): > 100 µM (inactive) | GI50 (KM-20L2): > 100 µM (inactive) | GI50 (RPMI-8226): > 100 µM (inactive) | GI50 (A549): > 100 µM (inactive) | GI50 (DMS-114): > 100 µM (inactive) | GI50 (UACC-62): > 100 µM (inactive) | GI50 (M19-MEL): > 100 µM (inactive) | GI50 (UO-31): > 100 µM (inactive) | GI50 (SR): > 100 µM (inactive) | GI50 (LXFL 529): > 100 µM (inactive) | GI50 (SK-MEL-28): > 100 µM (inactive) | GI50 (HCT-116): > 100 µM (inactive) | GI50 (KM12): > 100 µM (inactive) | GI50 (OVCAR-3): > 100 µM (inactive) | GI50 (HCT-15): > 100 µM | GI50 (LOX IMVI): > 100 µM (inactive)

O=C(O)CCSC(=O)Nc1cccc(F)c1
GI50 (HT-29): > 100 µM (inactive) | GI50 (MOLT-4): > 100 µM (inactive) | GI50 (K562): > 100 µM (inactive) | GI50 (HOP-62): 14.3 µM (inactive) | GI50 (SF-268): 24.3 µM (inactive) | GI50 (DLD-1): > 10 µM (inactive) | GI50 (OVCAR-5): > 100 µM (inactive) | GI50 (DMS-273): > 100 µM (inactive) | GI50 (CCRF-CEM): > 100 µM (inactive) | GI50 (SNB-78): > 100 µM (inactive) | GI50 (NCI-H460): > 100 µM (inactive) | GI50 (HCC 2998): > 100 µM (inactive) | GI50 (M14): 18.3 µM (inactive) | GI50 (SF-539): > 100 µM (inactive) | GI50 (IGROV-1): > 10 µM (inactive) | GI50 (NCI-H226): > 100 µM (inactive) | GI50 (OVCAR-8): > 100 µM (inactive) | GI50 (NCI-H23): > 100 µM (inactive) | GI50 (COLO 205): > 100 µM (inactive) | GI50 (ACHN): > 100 µM (inactive) | GI50 (SW-620): > 100 µM (inactive) | GI50 (SF-295): > 100 µM (inactive) | GI50 (EKVX): 3.55 µM (inactive) | GI50 (786-0): > 100 µM (inactive) | GI50 (TK-10): > 100 µM (inactive) | GI50 (HL-60): 23.3 µM (inactive) | GI50 (SN12C): > 100 µM (inactive) | GI50 (SNB-19): > 100 µM (inactive) | GI50 (SK-MEL-2): > 100 µM (inactive) | GI50 (U-251): > 100 µM (inactive) | GI50 (UACC-257): > 100 µM (inactive) | GI50 (KM-20L2): > 100 µM (inactive) | GI50 (RPMI-8226): > 100 µM (inactive) | GI50 (A549): > 100 µM (inactive) | GI50 (DMS-114): 66.5 µM (inactive) | GI50 (UACC-62): 0.228 µM (active) | GI50 (UO-31): > 100 µM (inactive) | GI50 (SR): > 100 µM (inactive) | GI50 (LXFL 529): > 100 µM (inactive) | GI50 (SK-MEL-28): > 100 µM (inactive) | GI50 (A498): > 100 µM (inactive) | GI50 (KM12): > 100 µM (inactive) | GI50 (OVCAR-3): 40.6 µM (inactive) | GI50 (HCT-15): > 100 µM | GI50 (LOX IMVI): > 100 µM (inactive)

CCOC(=O)/C(C(N)=O)=C(O)/C(O)=C(\Br)C(=O)c1ccccc1
GI50 (HT-29): 25.9 µM (inactive) | GI50 (OVCAR-4): 22 µM (inactive) | GI50 (MOLT-4): 2.99 µM (inactive) | GI50 (K562): 11.8 µM (inactive) | GI50 (CAKI-1): 11.1 µM (inactive) | GI50 (HOP-62): 20.5 µM (inactive) | GI50 (SF-268): 19.5 µM (inactive) | GI50 (SNB-75): 17.3 µM (inactive) | GI50 (OVCAR-5): 19.4 µM (inactive) | GI50 (NCI/ADR-RES): 25.8 µM (inactive) | GI50 (CCRF-CEM): 0.979 µM (active) | GI50 (NCI-H460): 24.8 µM (inactive) | GI50 (PC-3): 17.4 µM (inactive) | GI50 (HCC 2998): 22 µM (inactive) | GI50 (M14): 14.6 µM (inactive) | GI50 (SF-539): 18.5 µM (inactive) | GI50 (IGROV-1): 15.9 µM (inactive) | GI50 (NCI-H226): 19.5 µM (inactive) | GI50 (OVCAR-8): 19.6 µM (inactive) | GI50 (NCI-H23): 18.8 µM (inactive) | GI50 (COLO 205): 17.3 µM (inactive) | GI50 (SK-MEL-5): 16.6 µM (inactive) | GI50 (ACHN): 19.1 µM (inactive) | GI50 (SW-620): 9.66 µM (inactive) | GI50 (SF-295): 56.8 µM (inactive) | GI50 (Malme-3M): 15.1 µM (inactive) | GI50 (EKVX): 23.9 µM (inactive) | GI50 (786-0): 15.8 µM (inactive) | GI50 (TK-10): 19 µM (inactive) | GI50 (BT-549): 18.6 µM (inactive) | GI50 (RXF 393): 15.6 µM (inactive) | GI50 (HL-60): 0.0622 µM (active) | GI50 (SN12C): 18.5 µM (inactive) | GI50 (SNB-19): 47 µM (inactive) | GI50 (SK-MEL-2): 18.9 µM (inactive) | GI50 (SK-OV-3): 26.2 µM (inactive) | GI50 (HOP-92): 19.9 µM (inactive) | GI50 (MDA-N): 17.5 µM (inactive) | GI50 (U-251): 18.2 µM (inactive) | GI50 (MDA-MB-231): 19.6 µM (inactive) | GI50 (UACC-257): 17.9 µM (inactive) | GI50 (RPMI-8226): 9.25 µM (inactive) | GI50 (A549): 20.4 µM (inactive) | GI50 (MCF7): 17.7 µM (inactive) | GI50 (Hs-578T): 20.4 µM (inactive) | GI50 (T47D): 23.1 µM (inactive) | GI50 (UACC-62): 17.8 µM (inactive) | GI50 (MDA-MB-435): 16.9 µM (inactive) | GI50 (UO-31): 18.9 µM (inactive) | GI50 (SR): 3.68 µM (inactive) | GI50 (SK-MEL-28): 17.9 µM (inactive) | GI50 (A498): > 100 µM (inactive) | GI50 (HCT-116): 16.4 µM (inactive) | GI50 (DU-145): 19.6 µM (inactive) | GI50 (KM12): 18.1 µM (inactive) | GI50 (OVCAR-3): 20.7 µM (inactive) | GI50 (HCT-15): 18.2 µM | GI50 (NCI-H522): 1.72 µM (inactive) | GI50 (LOX IMVI): 15.6 µM (inactive)
